Patent publication US12194048B2, “Use of pyrrolopyridine derivatives for preventing or treating inflammatory diseases” (VORONOI CO., LTD., priority 2020, dated 2025)

Tested on: collagen-induced arthritis mouse model
Assay: Collagen-induced arthritis mouse model
Format: in vivo, male DBA-1 mice
Experimental: In the present experiment, male DBA-1 mice aged 8 to 10 weeks were used as the animal model. After mixing Bovine Type II Collagen (CII) with the same amount of complete Freud's adjuvant, 100 μL was injected by intradermal injection into the tail of the DBA-1 mouse. After 21 days, the same CII was mixed with the same amount of incomplete Freud's adjuvant (IFA, Chondrex), then 100 μL was injected by intradermal injection into the tail. Observation of symptoms of the mouse model began at this point, and arthritis assessment was carried out every other day. […] In the case of the control group Enbrel (anti-TNF-α), 10 mg/kg was subcutaneously administered once every 2 days, then dexamethasone (0.15 mg/kg), Baricitinib (5 mg/kg), Filgotinib (50 mg/kg), and Tofacitinib (10 mg/kg) were orally administered twice a day; as for arthritis assessment, the scores assessed at the four feet of the mouse were added and divided by 4 to give a mean, based on the mean arthritic index by Rosloniec et al (Reference Literature 1: Brand D D, et al. Nat Protoc. 2007:2(5): 1269-75).
The scores and criteria for the arthritis assessment are as follows. • Score 0: No edema or erythema. • Score 1: Mild edema and erythema limited to the foot or ankle joint • Score 2: Mild edema and erythema from the ankle joint to the tarsals • Score 3: Moderate edema and erythema from the ankle joint to the metatarsals. • Score 4: Severe edema and skin flaring from the ankle to the entire leg, or stiffness in the leg
Upon termination of the experiment, the weight of the two hind legs of each mouse were measured and added, and these measurements were compared.
Vol. 30, No. I, p93-96.; Reference 3: Pine P R, et al. Clin Immunol. 124 (3): 244-57).

[1] = 30 mg/kg orally twice a day, H&E and T-blue, FIGS. 3c to 3e

CCNc1cc(Nc2ccc(C(=O)N3CCC(N4CCOCC4)CC3)cc2OC)nc2[nH]cc(C(F)(F)F)c12 [Compound 1, (4-((4-(ethylamino)-3-(trifluoromethyl)-1H-pyrrolo[2,3-b]pyridine-6-yl)amino)-3-methoxyphenyl)(4-morpholinopiperidine-1-yl)methanone]
reduced: weight of the joint (30 mg/kg orally twice a day for 2 weeks, FIG. 3b) | area of cells where collagen-induced inflammation had occurred (histology) [1] | area of the damaged joint (histology) [1]
